Reference: US7560468B2, “Substituted 1,4,8-triazaspiro[4,5]decan-2-one compounds” (Gruenenthal GmbH, priority 2004, dated 2009)

Tests used:
5-HT transporter = target: T1, 5-HT transporter (Rattus norvegicus, UniProt P31652); assay: Inhibition of 5-HT uptake in synaptosomes; type: biochemical
T1 construct: from tissue; host or cells: rat brain synaptosomes (marrow/medulla and pons), P2 fraction

NA transporter = assay: Inhibition of noradrenalin uptake in synaptosomes; type: biochemical
[1] = test system: batrachotoxin (BTX) binding site of the sodium channel; assay: Affinity to the batrachotoxin (BTX) binding site of the sodium channel; conditions: rat cerebrocortex synaptosomes, [3H]-batrachotoxinin A20 α-benzoate 10 nM; test concentration not given

T1 sequence (P31652 whole entry): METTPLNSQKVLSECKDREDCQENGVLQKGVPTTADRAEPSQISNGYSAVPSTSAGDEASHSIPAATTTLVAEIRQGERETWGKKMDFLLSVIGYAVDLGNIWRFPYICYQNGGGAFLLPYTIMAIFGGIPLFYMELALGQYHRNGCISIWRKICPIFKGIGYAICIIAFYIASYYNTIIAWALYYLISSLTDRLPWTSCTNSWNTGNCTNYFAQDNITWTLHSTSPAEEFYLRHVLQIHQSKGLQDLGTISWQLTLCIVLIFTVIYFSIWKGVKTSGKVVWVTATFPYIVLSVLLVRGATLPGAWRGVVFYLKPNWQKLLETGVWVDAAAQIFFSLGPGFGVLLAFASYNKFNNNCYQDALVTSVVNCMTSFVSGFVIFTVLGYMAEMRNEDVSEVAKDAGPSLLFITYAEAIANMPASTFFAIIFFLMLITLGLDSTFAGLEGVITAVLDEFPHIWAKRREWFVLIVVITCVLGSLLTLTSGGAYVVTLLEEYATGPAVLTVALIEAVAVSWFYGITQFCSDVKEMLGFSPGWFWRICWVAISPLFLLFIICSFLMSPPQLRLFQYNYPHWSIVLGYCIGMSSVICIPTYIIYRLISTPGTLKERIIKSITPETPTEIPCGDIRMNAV

Compound | Uptake_5-HT, rat, 1 μM, % inhibition (5-HT transporter) [%] | Uptake (NA), rat, 10 μM, % inhibition (NA transporter) [%] | BTX Inhibition [1] | inhibition at 1 µM (5-HT transporter; read-out: Uptake_5-HT, rat, 1 μM, % inhibition) [%]
O=C1NC2(CCN(S(=O)(=O)c3ccccc3F)CC2)NC1Cc1ccccc1 (stereo not drawn) [Example 7, 3-Benzyl-8-(2-fluorobenzolsulfonyl)-1,4,8-triazaspiro[4,5]decan-2-one] | 54 | 32 |  | 
CSCCC1NC2(CCN(S(=O)(=O)c3ccc(C(C)=O)cc3)CC2)N(Cc2cccc(C#N)c2)C1=O (stereo not drawn) [Example 10, 3-[8-(4-Acetylbenzolsulfonyl)-3-(2-methylsulfanylethyl)-2-oxo-1,4,8-triazaspiro[4,5]dec-1-ylmethyl]-benzonitrile] | 35 | 39 |  | 
COc1cc(C)c(S(=O)(=O)N2CCC3(CC2)NC(C(C)C)C(=O)N3Cc2ccccc2F)c(C)c1C (stereo not drawn) [Example 11, 1-(2-Fluorobenzyl)-3-isopropyl-8-(4-methoxy-2,3,6-trimethylbenzolsulfonyl)-1,4,8-triazaspiro[4,5]decan-2-one] | 52 | 37 |  | 
C#CCN1C(=O)C(Cc2ccccc2)NC12CCN(S(=O)(=O)c1ccccc1C(F)(F)F)CC2 (stereo not drawn) [Example 39, 3-Benzyl-1-prop-2-ynyl-8-(2-trifluoromethylbenzolsulfonyl)-1,4,8-triazaspiro[4,5]decan-2-one] | 38 | 41 | 39 | 
CCOC(=O)CN1C(=O)C(Cc2ccccc2)NC12CCN(S(=O)(=O)c1cc([N+](=O)[O-])ccc1C)CC2 (stereo not drawn) [Example 46, Ethyl[3-benzyl-8-(2-methyl-5-nitrobenzolsulfonyl)-2-oxo-1,4,8-triazaspiro[4,5]dec-1-yl]-acetate] | 90 | 33 | 30 | 
CCOC(=O)CN1C(=O)C(Cc2ccccc2)NC12CCN(S(=O)(=O)c1ccccc1S(C)(=O)=O)CC2 (stereo not drawn) [Example 47, Ethyl[3-benzyl-8-(2-methansulfonylbenzolsulfonyl)-2-oxo-1,4,8-triazaspiro[4,5]dec-1-yl]-acetate] | 71 | 47 | 31 | 
CCCCS(=O)(=O)N1CCC2(CC1)NCC(=O)N2Cc1ccc(C(=O)OC)cc1 [Example 53, Methyl 4-[8-(butan-1-sulfonyl)-2-oxo-1,4,8-triazaspiro[4,5]dec-1-ylmethyl]-benzoate] |  | 30 | 31 | 45
CCOC(=O)CN1C(=O)C(Cc2ccccc2)NC12CCN(S(=O)(=O)c1ccccc1C(F)(F)F)CC2 (stereo not drawn) [Example 65, Ethyl[3-benzyl-2-oxo-8-(2-trifluoromethylbenzolsulfonyl)-1,4,8-triazaspiro[4,5]dec-1-yl]-acetate] | 71 | 33 | 51 | 
CCOC(=O)CN1C(=O)C(Cc2ccccc2)NC12CCN(S(=O)(=O)Cc1ccccc1)CC2 (stereo not drawn) [Example 68, Ethyl(3-benzyl-2-oxo-8-benzolmethansulfonyl-1,4,8-triazaspiro[4,5]dec-1-yl)acetate] | 69 | 31 | 47 | 
COc1ccccc1NC(=S)N1CCC2(CC1)NC(Cc1ccccc1)C(=O)N2Cc1ccccc1F (stereo not drawn) [Example 108, 3-Benzyl-1-(2-fluorobenzyl)-2-oxo-1,4,8-triazaspiro[4,5]decan-8-thiocarboxylic acid (2-methoxy-benzol)amide] | 86 | 31 | 86 | 
C#CCN1C(=O)C(CC(C)C)NC12CCN(C(=S)Nc1cccc(C(C)=O)c1)CC2 (stereo not drawn) [Example 163, 3-Isobutyl-2-oxo-1-prop-2-ynyl-1,4,8-triazaspiro[4,5]decan-8-thiocarboxylic acid (3-acetylbenzol)amide] | 38 | 34 |  | 
COC(=O)c1ccc(CN2C(=O)C(C(C)C)NC23CCN(C(=S)Nc2c(F)c(F)c(F)c(F)c2F)CC3)cc1 (stereo not drawn) [Example 164, Methyl 4-(3-isopropyl-2-oxo-8-pentafluorobenzolthiocarbamoyl-1,4,8-triazaspiro[4,5]dec-1-ylmethyl)benzoate] |  | 58 | 42 | 
CSCCC1NC2(CCN(C(=S)NCC3CCCO3)CC2)N(Cc2ccc(F)cc2)C1=O (stereo not drawn) [Example 168, 1-(4-Fluorobenzyl)-3-(2-methylsulfanylethyl)-2-oxo-1,4,8-triazaspiro[4,5]decan-8-thiocarboxylic acid (tetrahydrofuran-2-ylmethyl)amide] |  | 35 | 38 | 
CC(C)CC1NC2(CCN(C(=S)Nc3cc(C(F)(F)F)cc(C(F)(F)F)c3)CC2)N(Cc2ccccc2C#N)C1=O (stereo not drawn) [Example 169, 1-(2-Cyanobenzyl)-3-isobutyl-2-oxo-1,4,8-triazaspiro[4,5]decan-8-thiocarboxylic acid (3,5-bis-trifluoromethylbenzol)amide] |  | 44 | 91 | 
CC(C)CC1NC2(CCN(C(=S)NCc3ccccc3)CC2)N(Cc2ccccc2C#N)C1=O (stereo not drawn) [Example 170, 1-(2-Cyanobenzyl)-3-isobutyl-2-oxo-1,4,8-triazaspiro[4,5]decan-8-thiocarboxylic acid benzylamide] |  | 46 | 53 | 
CSCCC1NC2(CCN(C(=S)Nc3ccc(Cl)cc3)CC2)N(Cc2cccc(C#N)c2)C1=O (stereo not drawn) [Example 172, 1-(3-Cyanobenzyl)-3-(2-methylsulfanylethyl)-2-oxo-1,4,8-triazaspiro[4,5]decan-8-thiocarboxylic acid (4-chlorobenzol)amide] |  | 47 | 59 | 
CCCCN1C(=O)C(CCSC)NC12CCN(C(=S)Nc1c(F)c(F)c(F)c(F)c1F)CC2 (stereo not drawn) [Example 173, 1-Butyl-3-(2-methylsulfanylethyl)-2-oxo-1,4,8-triazaspiro[4,5]decan-8-thiocarboxylic acid pentafluorobenzolamide-amide] |  | 45 | 40 | 
CN1C(=O)C(Cc2ccccc2)NC12CCN(C(=S)NCc1ccc(Cl)cc1)CC2 (stereo not drawn) [Example 175, 3-Benzyl-1-methyl-2-oxo-1,4,8-triazaspiro[4,5]decan-8-thiocarboxylic acid 4-chlorobenzylamide] |  | 32 | 63 | 
CSCCC1NC2(CCN(C(=S)NC(C)c3ccccc3)CC2)N(Cc2cccc(C#N)c2)C1=O (stereo not drawn) [Example 181, 1-(3-Cyanobenzyl)-3-(2-methylsulfanylethyl)-2-oxo-1,4,8-triazaspiro[4,5]decan-8-thiocarboxylic acid (1-benzol-ethyl)amide] |  | 40 | 57 | 
COc1ccccc1NC(=S)N1CCC2(CC1)NC(CCSC)C(=O)N2Cc1ccccc1C#N (stereo not drawn) [Example 183, 1-(2-Cyanobenzyl)-3-(2-methylsulfanylethyl)-2-oxo-1,4,8-triazaspiro[4,5]decan-8-thiocarboxylic acid (2-methoxy-benzol)amide] |  | 29 | 37 | 
COc1ccccc1NC(=S)N1CCC2(CC1)NC(CCSC)C(=O)N2Cc1cccc(C#N)c1 (stereo not drawn) [Example 184, 1-(3-Cyanobenzyl)-3-(2-methylsulfanylethyl)-2-oxo-1,4,8-triazaspiro[4,5]decan-8-thiocarboxylic acid (2-methoxy-benzol)amide] |  | 32 | 36 | 
CSCCC1NC2(CCN(C(=S)NCc3ccc(Cl)cc3)CC2)N(Cc2ccccc2C#N)C1=O (stereo not drawn) [Example 193, 1-(2-Cyanobenzyl)-3-(2-methylsulfanylethyl)-2-oxo-1,4,8-triazaspiro[4,5]decan-8-thiocarboxylic acid 4-chlorobenzylamide] |  | 32 | 72 | 
C#CCN1C(=O)C(CC(C)C)NC12CCN(C(=S)Nc1cc(Cl)cc(Cl)c1)CC2 (stereo not drawn) [Example 195, 3-Isobutyl-2-oxo-1-prop-2-ynyl-1,4,8-triazaspiro[4,5]decan-8-thiocarboxylic acid (3,5-dichlorobenzol)amide] |  | 30 | 77 | 
CCOC(=O)CN1C(=O)C(CCSC)NC12CCN(C(=O)Nc1ccccc1)CC2 (stereo not drawn) [Example 203, Ethyl[3-(2-methylsulfanylethyl)-2-oxo-8-benzolcarbamoyl-1,4,8-triazaspiro[4,5]dec-1-yl]-acetate] |  | 40 | 32 | 
CCCCN1C(=O)C(C(C)C)NC12CCN(C(=O)Nc1cc(OC)ccc1OC)CC2 (stereo not drawn) [Example 216, 1-Butyl-3-isopropyl-2-oxo-1,4,8-triazaspiro[4,5]decan-8-carboxylic acid (2,5-dimethoxy-benzol)amide] | 46 | 30 |  | 
CC(C)CC1NC2(CCN(C(=O)NCc3ccc(Cl)c(Cl)c3)CC2)N(Cc2ccccc2C#N)C1=O (stereo not drawn) [Example 217, 1-(2-Cyanobenzyl)-3-isobutyl-2-oxo-1,4,8-triazaspiro[4,5]decan-8-carboxylic acid 3,4-dichlorobenzylamide] |  | 39 | 78 | 
CSCCC1NC2(CCN(C(=O)Nc3ccc(OC(F)(F)F)cc3)CC2)N(C)C1=O (stereo not drawn) [Example 222, 1-Methyl-3-(2-methylsulfanylethyl)-2-oxo-1,4,8-triazaspiro[4,5]decan-8-carboxylic acid (4-trifluoromethoxy-benzol)amide] |  | 30 | 48 | 
CSCCC1NC2(CCN(C(=O)NCc3ccc(Cl)c(Cl)c3)CC2)N(Cc2ccccc2C#N)C1=O (stereo not drawn) [Example 229, 1-(2-Cyanobenzyl)-3-(2-methylsulfanylethyl)-2-oxo-1,4,8-triazaspiro[4,5]decan-8-carboxylic acid 3,4-dichlorobenzylamide] |  | 40 | 69 | 
